In patent US20240000899A1, “THERAPEUTIC USEFUL AGAINST ANTIMICROBIAL RESISTANT AGENTS” (priority 2022, published 2024):

How the values were obtained:
human coronavirus = conditions: therapeutic concentration (~1.7 pH), in vitro suspension tests
[1] = aerosolized, pH range of 1.5 to 2.0
[2] = tested on: HepG2 (human liver) cell culture; assay: Modified cytotoxicity protocol: residual anions of neutralized acid formulations; assay type: cell-based; conditions: for Cytotoxicity of residual anions, conclusion in words: pH 1.5
Protocol: Purpose: A modified cytotoxicity protocol was developed focusing on the cytotoxicity of the residual anions of the acid formulations. Twenty different acids formulations were tested, each in the range of 1.95 to 1.5 pH. Each formulation was diluted with distilled water to hydronium concentrations of 11.22 mM (pH 1.95), […] (pH 1.85), 19.95 mM (pH 1.70), 25.12 mM (pH 1.60), and 31.62 mM (pH 1.50). It was then titrated with NaOH to 7.4 pH and applied to HepG2 (human liver) cell culture in triplicate replicates.

[3] = 4.0% w/v concentration; cited from earlier work
[4] = tested on: Staphylococcus aureus ATCC 6538; assay: Modified ASTM E2315 test of low pH therapeutic with AMPs, acid neutralized after one minute; assay type: cell-based
Text: Since the reaction speed of the two different MOAs are different, a modified test protocol was developed, which is summarized below. • a. […] Heretofore, it has been believed that AMPs are unstable in low pH environments. Mixture of dry powder immediately prior to use is believed to address concerns regarding minimization of in vitro stability. • b. The prepared AMP solution was then mixed with the bacteria containing media. After one minute the acid solution was neutralized. This simulates the short antimicrobial period for the elevated proton concentration in vivo. The bacteria population was measured to determine efficacy after one minute. • c. The AMPs retained in the solution are not expected to stop their antimicrobial activity after acid neutralization, so a second bacteria population measurement was made after 24 hours. [table]

## O=S(=O)(O)O [sulfuric acid]
Human coronavirus
  Time to inactivating and/or reducing concentration of human coronavirus: ≤ 1 min
Mouse fibroblast cells
  Cytotoxicity: no cytotoxicity
[1]
  Harm to host respiratory tissues in vivo: not harmful

## Sulfuric [Example 3]
[2]
  Cytotoxicity of residual anions, conclusion in words: least toxic
  % Viability @ pH 1.9: 140%

## OB(O)O [Boric acid]
[3]
  pH: 4.8-5.0

## LL-37 [Example 38, reference compound]
[4]; bacteria population after one minute, then acid neutralized, no soiling, single-replicant
  1-min Efficacy (log): 4.15 log
[4]; comparison of Table 3 examples
  Efficacy on S. aureus, conclusion in words: highly effective
[4]; second bacteria population measurement after 24 hours, acid neutralized after one minute
  24-hour Efficacy (log): >6.45 log

## Isoascorbic + HCl [Example 18]
[2]
  Cytotoxicity of residual anions, conclusion in words: least toxic
  % Viability @ pH 1.9: 104%

## Isoacorbic + sulfuric [Example 17]
[2]
  % Viability @ pH 1.9: 89.3%

## Hydroxyacetic +. Sulfuric [Example 8]
[2]
  % Viability @ pH 1.9: 72.7%

## Hydroxyacetic + HCl [Example 15]
[2]
  % Viability @ pH 1.9: 117%
